The values below come from US20130071521A1, “REBAUDIOSIDE D SWEETENERS AND FOOD PRODUCTS SWEETENED WITH REBAUDIOSIDE D” (PEPSICO, INC., priority 2007, published 2013).

Molecules are shown by their SMILES. Where a SMILES comes first, the peptide text is derived from it.

The conditions of test [1]: cited from earlier work; for potency, times as sweet as sugar: commonly accepted potency figures.
The subject of test [2] is sensory panel of twelve testers. The test is described as follows: Sensory panel evaluation of initial sweetness characteristics of sweeteners in water (Example 1). Format: in vivo. As to conditions: for initial sweetness perception: FIG. 2/FIG. 4; for initial bitterness perception: FIG. 3/FIG. 5. On the procedure:
Sensory evaluations of different sweeteners at various concentrations were performed to provide comparative analysis of organoleptic characteristics of aqueous solutions of rebaudioside D, versus other sweeteners. The rebaudioside D was a stevia extract having a purity of at least 93% by weight rebaudioside D (Reb D). Initial sweetness characteristics of three concentrations of such Reb D in water were determined by a sensory panel of twelve testers. Sensory panels are well known to those of skill in the art, and comprise testers trained to evaluate the organoleptic attributes of comestibles. Typically, sensory panelists have been screened for their taste acuity and extensively trained in the use of standardized vocabulary to describe the appearance, aroma, flavor, mouthfeel and aftertaste of a wide variety of products, as well as scaling techniques to quantify the attributes. The numerical data generated by the sensory panel testers were then analyzed for their statistical significance.
The water employed in the tests of Example 1 comprised purified water as described in detail above, and having a pH of 7.0. The initial sweetness characteristics of 1200 parts per million (ppm) Reb D in water were compared to the initial sweetness characteristics of aqueous solutions of each of 1200 ppm rebaudioside A (Reb A), sucrose, aspartame and sucralose. The rebaudioside A was a stevia extract comprising a purity of 95% by weight rebaudioside A (PureCircle USA Inc., Oak Brook, Ill.). The specific attributes tested by the sensory panel comprised sweetness, thickness, astringency, bitterness, numbing, cooling and licorice.
The initial sweetness characteristics of other concentrations of rebaudioside D in water were also tested and compared to the same concentrations of rebaudioside A in water. […] FIGS. 2 through 5 illustrate the differences in the characteristics of sweetness and bitterness attributes between Reb D and Reb A.

For test [3] the following is noted: Kinghorn (2002) page 138, cited from earlier work; for relative quality of taste, as compared to stevioside: stevioside is rated 0.
Test [4] concerns sensory panel of twelve testers. In words: Sensory panel evaluation in water, noncarbonated beverage base and carbonated beverage base (Example 2). Type of test: in vivo. Details: Sweetness / Bitterness: scale not given here. The conditions noted are these: for interaction between the sweetener and the three beverage bases (initial sweetness attribute plots): water, noncarbonated and carbonated beverage base. The procedure: Potential beverage base effects on the initial sweetness perception of rebaudioside D were investigated by performing tests of three concentrations of rebaudioside D (Reb D) in water, in a noncarbonated beverage base, and in a carbonated beverage base, by a sensory panel of twelve testers. The numerical data generated by the sensory panel testers were then analyzed for their statistical significance.
The water employed for the tests of this Example comprised the characteristics as described in Example 1. The noncarbonated beverage base comprised purified water, and citric acid in an amount sufficient to decrease the pH of the noncarbonated beverage base to 3.1. The carbonated beverage base comprised purified water, carbon dioxide, and citric acid in an amount sufficient to decrease the pH of the noncarbonated beverage base to about 3.1. The initial sweetness characteristics of 606 parts per million (ppm) Reb D in water were compared to the initial sweetness characteristics of 606 ppm Reb D in noncarbonated beverage base and 606 ppm Reb D in carbonated beverage base.
The specific attributes tested by the sensory panel comprised sweetness, thickness, astringency, bitterness, numbing, cooling, licorice, burn/tingle and mouthcoat.

The mark [5] stands for this setting: 360 ppm (sucrose 5.4 brix), FIGS. 16-18.
Setting [6] is: 606 ppm (sucrose 8.5 brix), FIGS. 13-15.
The mark [7] stands for this setting: CSD (carbonated beverage base), 360 ppm.
[8] abbreviates: CSD (carbonated beverage base), 606 ppm.
Setting [9] is: High Level, 1200 ppm, averaged across all three beverage bases.
The mark [10] stands for this setting: Low-Medium Level, 360 ppm, averaged across all three beverage bases.
Setting [11] is: Medium Level, 606 ppm, averaged across all three beverage bases.
[12] abbreviates: NCB (noncarbonated beverage base), 360 ppm.
The mark [13] stands for this setting: NCB (noncarbonated beverage base), 606 ppm.

For the compound `CC1=CC(=O)NS(=O)(=O)O1` [Acesulfame-K], the “potency, times as sweet as sugar” value in test [1] is on record as 200 times as sweet as sugar.

Take `COC(=O)[C@H](Cc1ccccc1)NC(=O)[C@@H](N)CC(=O)O` [Aspertame] (HELM PEPTIDE1{D.F.[CO[*:1]]}$$$$V2.0): the “potency, times as sweet as sugar” value in test [1] is 200 times as sweet as sugar.

Regarding `C[C@H](CC[C@@H](O[C@@H]1O[C@H](CO[C@@H]2O[C@H](CO)[C@@H](O)[C@H](O)[C@H]2O)[C@@H](O)[C@H](O)[C@H]1O[C@@H]1O[C@H](CO)[C@@H](O)[C@H](O)[C@H]1O)C(C)(C)O)[C@H]1CC[C@@]2(C)[C@@H]3CC=C4[C@@H](CC[C@H](O[C@@H]5O[C@H](CO[C@@H]6O[C@H](CO)[C@@H](O)[C@H](O)[C@H]6O)[C@@H](O)[C@H](O)[C@H]5O)C4(C)C)[C@]3(C)[C@H](O)C[C@]12C` [Mogroside V], the “potency, times as sweet as sugar” value in test [1] is listed as 100-300 times as sweet as sugar.

For `COc1ccc(CCC(=O)c2c(O)cc(O[C@@H]3O[C@H](CO)[C@@H](O)[C@H](O)[C@H]3O[C@@H]3O[C@@H](C)[C@H](O)[C@@H](O)[C@H]3O)cc2O)cc1O` [Neohesperidin dihydrochalcone], the “potency, times as sweet as sugar” value in test [1] is 300 times as sweet as sugar.

For `COC(=O)[C@H](Cc1ccccc1)NC(=O)[C@H](CC(=O)O)NCCC(C)(C)C` [Neotame], in test [1], the “potency, times as sweet as sugar” value is recorded as 8,000 times as sweet as sugar.

Consider `C=C1C[C@@]23CC[C@H]4[C@@](C)(CCC[C@@]4(C)C(=O)O[C@@H]4O[C@H](CO)[C@@H](O)[C@H](O)[C@H]4O)[C@@H]2CC[C@]1(O[C@@H]1O[C@H](CO)[C@@H](O)[C@H](O[C@@H]2O[C@H](CO)[C@@H](O)[C@H](O)[C@H]2O)[C@H]1O[C@@H]1O[C@H](CO)[C@@H](O)[C@H](O)[C@H]1O)C3` [Reb A, rebaudioside A, reference compound], for which, in test [1] (background statement), the “sweetness relative to sucrose” value is “approximately 200 times sweeter than sucrose”. Besides, the “potency, times as sweet as sugar” value in test [1] is listed as 150-200 times as sweet as sugar. In addition, the figures for the initial sweetness perception result in test [2] (360 ppm in water) and in test [2] (1200 ppm in water) were “about 60” and “about 68”, respectively. The initial bitterness perception entry in test [2] (360 ppm in water) is listed as “about 38”; in test [2] (1200 ppm in water) it was “about 85”. Besides, the “sweetness (value reported by Kinghorn)” value in test [3] was 242. Also, the “relative quality of taste, as compared to stevioside” value in test [3] is given as “+2”. Further, the “interaction between the sweetener and the three beverage bases (initial sweetness attribute plots)” value in test [4] (setting [5]) and in test [4] (setting [6]) was “no significant interaction” throughout. Also, the Bitterness worked out at 20.5 in test [4] (setting [7]); 28.2 in test [4] (setting [8]); 45.1 in test [4] (setting [9]); 21.0 in test [4] (setting [10]); 33.4 in test [4] (setting [11]); 24.4 in test [4] (setting [12]). For the same compound, the Bitterness was 29.8 in test [4] (setting [13]); 21.0 in test [4] (Water, 360 ppm); 33.4 in test [4] (Water, 606 ppm). Also, the Sweetness is 50.7 in test [4] (setting [7]); 66.0 in test [4] (setting [8]); 70.6 in test [4] (setting [9]); 52.6 in test [4] (setting [10]); 63.5 in test [4] (setting [11]); 52.3 in test [4] (setting [12]). Moreover, the Sweetness in test [4] (setting [13]) came to 68.5; in test [4] (Water, 360 ppm), 52.6; in test [4] (Water, 606 ppm), 63.5.

For the compound `O=C1NS(=O)(=O)c2ccccc21` [Saccharin], the “potency, times as sweet as sugar” value in test [1] is reported as 300 times as sweet as sugar.

As for `OC[C@H]1O[C@H](O[C@]2(CCl)O[C@H](CCl)[C@@H](O)[C@@H]2O)[C@H](O)[C@@H](O)[C@H]1Cl` [Sucralose], the “potency, times as sweet as sugar” value in test [1] is on record as 600 times as sweet as sugar.

`C=C1C[C@@]23CC[C@H]4[C@@](C)(CCC[C@@]4(C)C(=O)O[C@@H]4O[C@H](CO)[C@@H](O)[C@H](O)[C@H]4O)[C@@H]2CC[C@]1(O[C@@H]1O[C@H](CO)[C@@H](O)[C@H](O)[C@H]1O[C@@H]1O[C@H](CO)[C@@H](O)[C@H](O)[C@H]1O)C3` [stevioside]: the “potency, times as sweet as sugar” value in test [1] was 100-250 times as sweet as sugar. Moreover, the “relative quality of taste, as compared to stevioside” value in test [3] is 0.

Take `OC[C@H]1O[C@@](CO)(O[C@H]2O[C@H](CO)[C@@H](O)[C@H](O)[C@H]2O)[C@@H](O)[C@@H]1O` [sucrose, reference compound]: the “interaction between the sweetener and the three beverage bases (initial sweetness attribute plots)” value in test [4] (setting [5]) and in test [4] (setting [6]) was “no significant interaction” each time.
